Reference: patent EP4722201A1, “3-PHENYLISOXAZOLINE-5-CARBOXAMIDE COMPOUND, AND PREPARATION METHOD THEREFOR, HERBICIDAL COMPOSITION THEREOF AND USE THEREOF” (Jiangsu Flag Chemical Industry Co., Ltd, priority 2023, dated 2024)

What was measured:
Experiment in all cases: Indoor herbicide activity determination, Seed Treatment; pre-emergence (soil spray)
Type in all cases: in vivo
[1] = test system: Lolium multiflorum
Text: (§1) The testing method for herbicide activity of the compound of the present invention was as follows:
(§2) Seed Treatment; pre-emergence: quantitative seeds of gramineous weeds (Echinochloa crusgalli, Eleusine indica, Digitaria sanguinalis, Alopecurus japonicus, Beckmannia syzigachne, Leptochloa chinensis, Polypogon fugax, Alopecurus aequalis, Lolium multiflorum, Poa annua, Aegilops tauschii, Avena fatua, Alopecurus myosuroides, Alopecurus japonicus and Alopecurus aequalis), broad-leaved weeds (Eclipta prostrata, Amaranthus retroflexus, Rorippa indica, Malachium aquaticum, Veronica polita, Conyza canadensis, Sesbania cannabina, Sagittariatrifolia and Schoenoplectiella juncoides), and Cyperus iria were sown in plastic pots having a diameter of 7 cm and holes at the bottom and filled with nutrient soil (sandy soil, pH 6.1, organic matter 1%) respectively, the seeds were covered with an appropriate amount of soil after being sown, then the soil was wetted with water from the bottom, the seeds were cultured in a constant-temperature illuminated culture room for 24 h, and the soil was sprayed by using a 3WP-2000 traveling spray tower produced by the Nanjing Institute of Agricultural Mechanization of the Ministry of Agriculture, where a rotational speed of a main shaft was 96 mm/r, a spray height was 300 mm, an effective spraying range of a nozzle was 350 mm, a spray area was 0.35 m^2, and a flow rate at the nozzle was 390 mL/min.
(§3) Post-emergence: an appropriate quantity of seeds of gramineous weeds (Echinochloa crusgalli, Eleusine indica, Digitaria sanguinalis, Alopecurus japonicus, Beckmannia syzigachne, Leptochloa chinensis, Polypogon fugax, Alopecurus aequalis, Lolium multiflorum, Poa annua, Aegilops tauschii, Avena fatua, Alopecurus myosuroides, Alopecurus japonicus and Alopecurus aequalis), broad-leaved weeds (Eclipta prostrata, Amaranthus retroflexus, Rorippa indica, Malachium aquaticum, Veronica polita, Conyza canadensis, Sesbania cannabina, Sagittariatrifolia and Schoenoplectiella juncoides), and Cyperus iria were sown in plastic pots having a diameter of 7 cm and holes at the bottom and filled with nutrient soil (sandy soil, pH 6.1, organic matter 1%) respectively, the seeds were covered with an appropriate amount of soil after being sown, then the soil was wetted with water from the bottom, the seeds were cultured in a constant-temperature illuminated culture room until a 2-4 leaf stage, and stems and leaves underwent spray treatment. After the treatment, the test materials were placed in a laboratory and cultured in the constant-temperature illuminated culture room after the liquid was naturally dry in the shade, and results were determined 21 days later. Inhibition rate of fresh weight % = (1−(fresh weight of treated plants)/(fresh weight of control plants)) × 100% [formula]

[2] = test system: Leptochloa chinensis
Text: as §1, §2, §3

[3] = test system: Aegilops tauschii; conditions: 120 g a.i./ha, read-out: Herbicidal activities (inhibition rate) Aegilops tauschii
Text: as §1, §2, §3

[4] = test system: Alopecurus japonicus
Text: as §1, §2, §3

[5] = test system: Cyperus iria; conditions: read-out: Herbicidal activities (inhibition rate) Cyperus iria; for inhibition at 120 g/ha: 120 g a.i./ha; for inhibition at 60 g/ha: 60 g a.i./ha
Text: as §1, §2, §3

[6] = test system: Eleusine indica
Text: as §1, §2, §3

[7] = test system: Alopecurus myosuroides
Text: as §1, §2, §3

[8] = test system: Eclipta prostrata; conditions: 60 g a.i./ha, read-out: Herbicidal activities (inhibition rate) Eclipta prostrata
Text: as §1, §2, §3

| SMILES | Herbicidal activities, Leptochloa chinensis (inhibition rate class) ([2]; Dosage 120 g a.i./ha) | inhibition at 60 g/ha [8] [%] | inhibition at 60 g/ha [5] [%] | Herbicidal activities, Eleusine indica (inhibition rate class) ([6]; Dosage 120 g a.i./ha) | Herbicidal activity (inhibition rate class), Leptochloa chinensis ([2]; Dosage 120 g a.i./ha) | Herbicidal activity (inhibition rate class), Eleusine indica ([6]; Dosage 120 g a.i./ha) | also measured |
| --- | --- | --- | --- | --- | --- | --- | --- |
| C=CC1(C(=O)N[C@H]2C[C@@H](C(=O)OCCSC)C2)CC(c2cc(F)cc(F)c2)=NO1 (mixture of isomers) [I-8] |  |  |  |  |  |  | Herbicidal activities, Lolium multiflorum (inhibition rate class) ([1]; Dosage 240 g a.i./ha): A (A indicates that the inhibition rate was greater than or equal to 80% to 100%); Herbicidal activities, Leptochloa chinensis (inhibition rate class) ([2]; Dosage 240 g a.i./ha): A (A indicates that the inhibition rate was greater than or equal to 80% to 100%); inhibition at 120 g/ha [3]: 80 to 100%; Herbicidal activities, Alopecurus japonicus (inhibition rate class) ([4]; Dosage 240 g a.i./ha): A (A indicates that the inhibition rate was greater than or equal to 80% to 100%); inhibition at 120 g/ha [5]: 80 to 100%; Herbicidal activities, Eleusine indica (inhibition rate class) ([6]; Dosage 240 g a.i./ha): A (A indicates that the inhibition rate was greater than or equal to 80% to 100%); Herbicidal activities, Alopecurus myosuroides (inhibition rate class) ([7]; Dosage 240 g a.i./ha): A (A indicates that the inhibition rate was greater than or equal to 80% to 100%) |
| O=C(N[C@H]1C[C@@H](C(=O)OC2CCCC2)C1)[C@@]1(C(F)(F)F)CC(c2cc(F)cc(OC(F)(F)F)c2)=NO1 [I-253] | A (A indicates that the inhibition rate was greater than or equal to 80% to 100%) | 60 to 80 | 80 to 100 | A (A indicates that the inhibition rate was greater than or equal to 80% to 100%) |  |  | Herbicidal activities, Alopecurus japonicus (inhibition rate class) ([4]; Dosage 120 g a.i./ha): A (A indicates that the inhibition rate was greater than or equal to 80% to 100%); Herbicidal activities, Alopecurus myosuroides (inhibition rate class) ([7]; Dosage 120 g a.i./ha): A (A indicates that the inhibition rate was greater than or equal to 80% to 100%) |
| O=C(N[C@H]1C[C@@H](C(=O)OCC(F)(F)C(F)(F)F)C1)[C@@]1(C(F)(F)F)CC(c2cc(F)cc(OC(F)(F)F)c2)=NO1 [I-254] | A (A indicates that the inhibition rate was greater than or equal to 80% to 100%) | 80 to 100 | 80 to 100 | A (A indicates that the inhibition rate was greater than or equal to 80% to 100%) |  |  | Herbicidal activities, Alopecurus japonicus (inhibition rate class) ([4]; Dosage 120 g a.i./ha): A (A indicates that the inhibition rate was greater than or equal to 80% to 100%); Herbicidal activities, Alopecurus myosuroides (inhibition rate class) ([7]; Dosage 120 g a.i./ha): A (A indicates that the inhibition rate was greater than or equal to 80% to 100%) |
| C=C[C@]1(C(=O)N[C@H]2C=C[C@@H](C(=O)OCCCCCCC)C2)CC(c2cc(F)cc(C(F)(F)F)c2)=NO1 [I-431] | A (A indicates that the inhibition rate was greater than or equal to 80% to 100%) | 80 to 100 | 80 to 100 | A (A indicates that the inhibition rate was greater than or equal to 80% to 100%) |  |  | Herbicidal activities, Lolium multiflorum (inhibition rate class) ([1]; Dosage 120 g a.i./ha): A (A indicates that the inhibition rate was greater than or equal to 80% to 100%); Herbicidal activities, Alopecurus japonicus (inhibition rate class) ([4]; Dosage 120 g a.i./ha): A (A indicates that the inhibition rate was greater than or equal to 80% to 100%); Herbicidal activities, Alopecurus myosuroides (inhibition rate class) ([7]; Dosage 120 g a.i./ha): A (A indicates that the inhibition rate was greater than or equal to 80% to 100%) |
| C=C[C@]1(C(=O)N[C@H]2C=C[C@@H](C(=O)OCc3ccccc3)C2)CC(c2cc(F)cc(C(F)(F)F)c2)=NO1 [I-439] | A (A indicates that the inhibition rate was greater than or equal to 80% to 100%) | 80 to 100 | 80 to 100 | A (A indicates that the inhibition rate was greater than or equal to 80% to 100%) |  |  |  |
| C=CC(C)OC(=O)[C@@H]1C=C[C@H](NC(=O)[C@@]2(C=C)CC(c3cc(F)cc(C(F)(F)F)c3)=NO2)C1 (stereo partly shown) [I-444] | A (A indicates that the inhibition rate was greater than or equal to 80% to 100%) | 80 to 100 | 80 to 100 | A (A indicates that the inhibition rate was greater than or equal to 80% to 100%) |  |  |  |
| C=C[C@]1(C(=O)N[C@H]2C=C[C@@H](C(=O)OC)C2)CC(c2cc(Cl)cc(OC(F)(F)F)c2)=NO1 [I-471] |  | 80 to 100 | 80 to 100 |  | A (A indicates that the inhibition rate was greater than or equal to 80% to 100%) | A (A indicates that the inhibition rate was greater than or equal to 80% to 100%) |  |
| C=C[C@]1(C(=O)N[C@H]2C=C[C@@H](C(=O)OC3CCC3)C2)CC(c2cc(Cl)cc(C(F)(F)F)c2)=NO1 [I-478] |  | 80 to 100 | 80 to 100 |  | A (A indicates that the inhibition rate was greater than or equal to 80% to 100%) | A (A indicates that the inhibition rate was greater than or equal to 80% to 100%) | Herbicidal activity (inhibition rate class), Lolium multiflorum ([1]; Dosage 120 g a.i./ha): B (B indicates that the inhibition rate was greater than or equal to 60% to less than 80%); Herbicidal activity (inhibition rate class), Alopecurus japonicus ([4]; Dosage 120 g a.i./ha): A (A indicates that the inhibition rate was greater than or equal to 80% to 100%); Herbicidal activity (inhibition rate class), Alopecurus myosuroides ([7]; Dosage 120 g a.i./ha): A (A indicates that the inhibition rate was greater than or equal to 80% to 100%) |
| C=C[C@]1(C(=O)N[C@H]2C=C[C@@H](C(=O)OC(C)C)C2)CC(c2cc(Cl)cc(C(F)(F)F)c2)=NO1 [I-483] |  | 80 to 100 | 80 to 100 |  | A (A indicates that the inhibition rate was greater than or equal to 80% to 100%) | A (A indicates that the inhibition rate was greater than or equal to 80% to 100%) |  |
| CSCCOC(=O)[C@@H]1C=C[C@H](NC(=O)C2(C)CC(c3cc(F)cc(C(F)(F)F)c3)=NO2)C1 (stereo partly shown) [I-497] |  |  |  |  |  |  | Herbicidal activity (inhibition rate class), Lolium multiflorum ([1]; Dosage 240 g a.i./ha): A (A indicates that the inhibition rate was greater than or equal to 80% to 100%); Herbicidal activity (inhibition rate class), Leptochloa chinensis ([2]; Dosage 240 g a.i./ha): A (A indicates that the inhibition rate was greater than or equal to 80% to 100%); inhibition at 120 g/ha [3]: 80 to 100%; Herbicidal activity (inhibition rate class), Alopecurus japonicus ([4]; Dosage 240 g a.i./ha): A (A indicates that the inhibition rate was greater than or equal to 80% to 100%); inhibition at 120 g/ha [5]: 80 to 100%; Herbicidal activity (inhibition rate class), Eleusine indica ([6]; Dosage 240 g a.i./ha): A (A indicates that the inhibition rate was greater than or equal to 80% to 100%); Herbicidal activity (inhibition rate class), Alopecurus myosuroides ([7]; Dosage 240 g a.i./ha): A (A indicates that the inhibition rate was greater than or equal to 80% to 100%) |
| C#CC(CC)OC(=O)[C@@H]1C=C[C@H](NC(=O)[C@@]2(C)CC(c3cc(Cl)cc(C(F)(F)F)c3)=NO2)C1 (stereo partly shown) [I-514] |  | 80 to 100 | 80 to 100 |  | A (A indicates that the inhibition rate was greater than or equal to 80% to 100%) | A (A indicates that the inhibition rate was greater than or equal to 80% to 100%) | Herbicidal activity (inhibition rate class), Lolium multiflorum ([1]; Dosage 120 g a.i./ha): A (A indicates that the inhibition rate was greater than or equal to 80% to 100%); Herbicidal activity (inhibition rate class), Alopecurus japonicus ([4]; Dosage 120 g a.i./ha): A (A indicates that the inhibition rate was greater than or equal to 80% to 100%); Herbicidal activity (inhibition rate class), Alopecurus myosuroides ([7]; Dosage 120 g a.i./ha): A (A indicates that the inhibition rate was greater than or equal to 80% to 100%) |
| COC(=O)[C@@H]1C=C[C@H](NC(=O)[C@@]2(C(F)F)CC(c3cc(F)cc(C(F)(F)F)c3)=NO2)C1 [I-532] |  | 80 to 100 | 80 to 100 |  | A (A indicates that the inhibition rate was greater than or equal to 80% to 100%) | A (A indicates that the inhibition rate was greater than or equal to 80% to 100%) |  |
